Results reported in BindingDB's records for doi:10.1021/acs.jmedchem.5b00109 (Peking Union Medical College, 2015).

assay: Inhibition of HIV-1 HXB2 gp41 N-terminal heptad repeat-mediated fusion between infected HL2/3 cells to target TZM-bl cells after 6 hrs by luciferase reporter gene assay

| Substance | IC50 |
| --- | --- |
| H-MTWEAWDRAIAEYAARIEALIR-OH | 59 nM |
| H-MTWEAWDRAIAEYAARIEALIRAAQEQQEKNEAALREL-OH | 0.86 nM |
| H-MTWEEWDKKIEEYTKKIEELI-OH | 2.2 nM |
| H-MTWEEWDKKIEEYTKKIEELIKKS-OH | 2.3 nM |
| H-TTWEAWDRAIAEYAARIEALIR-OH | > 2250 nM |
| H-TTWEEWDKKIEEYTKKIEELIKKS-OH | 18 nM |
| H-WEAWDRAIAEYAARIEALIRAAQEQQEKNEAALREL-OH | 0.34 nM |
